The text below walks through data of patent publication US20030157159A1, “Prevention and treatment of digestive tract infections” (priority 2002, published 2003).

One experiment relates to H. pylori strain #26695. The experiment in a line: bactericidal effect of selected terpenes on H. pylori viability. The class given is cell-based, Helicobacter pylori. More on the design: key: *NG = no growth; **TNTC = Too Numerous To Count. The settings on record: 10^6 cfu, 24 hours. The method, then:
Five terpenes (anethole, carvone, citral, geraniol and b-ionone) were used for this study. […] The H. pylori used was strain #26695 of […], this bacteria is a motile, cag A, vac A cytotoxin-positive gram negative bacteria which colonizes gnotobiotic piglets and indefinitely persists within the gastric microenvironment as a superficial infection of the gastric mucosa and mucus layer. 1) Stock solutions of each terpene with polysorbate-80 were prepared (1.8 ml terpene plus 0.2 ml polysorbate-80. […] 3) A total of 1.0×10^6 bacteria (30 ul) was added to 970 ul terpene dilutions (final volume of 1.0 ml) in loosely capped tubes and incubated for 24 hours at 37° C. with continuous mixing. […] Bacterial colony forming units (cfu) were determined visual (counting) inspection. Recovered bacteria were confirmed to be H. pylori by catalase and urease enzyme activities.

The subject of experiment [1] is E. coli strains AW574 or AW405. Description: Lysis of E. coli by terpenes (B-galactosidase/ONPG assay). In kind it is cell-based. An excerpt:
Lysis of the cell membrane was monitored by the determination of galactosidase activity. B-galactosidase is a well-characterized cytosolic enzyme in bacteria. This enzyme is inducible in the presence of isopropyl-1-thiogalactosidase (IPTG) and assayed colorimetricaly with substrate o-nitro-phenyl-B-D-galactoside (ONPG). ONPG is cleaved to release o-nitrophenol with peak absorbance at 420 nm. Since intact E. coli is impermeable to both ONPG and the enzyme, the cells have to be lysed prior to enzymatic assay. Therefore the ability of terpenes to lyse E. coli can be measured with this enzymatic assay and compared to known lysing agents. The procedure used was as follows: E. coli strains AW574 or AW405 were cultured overnight in 10 ml tryptone broth with […] at 35° C. Cells were allowed to growth after an absorbance equal to 0.9 was reached. Cells were harvested, washed with phosphate buffer and resuspended to an absorbance equal to 0.5. One tenth of a ml of the bacteria culture was added to 0.9 ml of buffer, warmed to 30° C. and then 80 ul of terpenes (85% terpenes and 15% polysorbate-80), 80 ul water (background) or 40 ul chloroform plus 40 ul 1% SDS in water (positive control) were added. After the addition of the lysing agents the tubes were mixed for 10 seconds and 0.2 ml of ONPG (4 mg/ml water) was added, then incubated for 5 minutes. The enzyme activity was stopped with 0.5 ml of 1 M sodium carbonate. After being centrifuged for 3 minutes at 1,500×g, supernatant was transferred to cuvettes and read at 420 nm. The relative degree of lysis caused by terpenes was calculated as follows:
100×(OD terpenes−OD water)/(OD chloroform−OD water)

The subject of the next experiment is E. coli. As to conditions: cited from earlier work.
The next experiment relates to Traveler's Diarrhea. As to conditions: Ericsson, Charles (1998); cited from earlier work.
The next experiment deals with E. coli strain AW574. The experiment in a line: single terpene or combination against E. coli growth (O.D.). In kind it is cell-based. The settings on record: single terpene 2 uMol; 24 hours; compared to the control treatment. The method, then: The objective of this example was to determine an optimum terpene mixture which could have a greater biocidal effect. E. coli strain AW574 was grown in tryptone broth to an exponential growth phase (O.D. between 0.4 and 1.0 at 590 nm). One tenth of this growth was inoculated to 10 ml of tryptone broth following by the addition of individual terpenes or as indicated on table 2; then incubated for 24 hours at 35-37° C. and the O.D. determined in each tube. The concentration of terpenes was 1 or 2 uMol. Each treatment was repeated in triplicate. The results are expressed as percentage bacterial growth as compared to the control treatment. It is observed that the combination of terpenes give better biocidal effect than single terpenes, with geraniol and carvone better than b-ionone.

The test system of the next experiment is H pylori. As to conditions: in vitro; cited from earlier work.
Setting [2] is: final dilution 1:10 of stock (90% terpene plus 10% polysorbate-80).
[3] abbreviates: final dilution 1:10000 of stock.
[4] abbreviates: final dilution 1:50000 of stock.

As to `CC=Cc1ccc(OC)cc1` [Anethole], the “H. pylori growth (cfu recovered)” value in the experiment with H. pylori strain #26695 (setting [2]) was “NG”; with H. pylori strain #26695 (final dilution 1:50 of stock), “NG”; in the experiment with H. pylori strain #26695 (final dilution 1:100 of stock) it was “NG”; with H. pylori strain #26695 (final dilution 1:500 of stock), “NG”; in the experiment on H. pylori strain #26695 (final dilution 1:1000 of stock), 10^3 cfu; with H. pylori strain #26695 (final dilution 1:5000 of stock), 10^3 cfu. The “H. pylori growth (cfu recovered)” value in the experiment on H. pylori strain #26695 (setting [3]) and in the experiment with H. pylori strain #26695 (setting [4]) was “TNTC” throughout.

Turning to Polysorbate-80 [reference compound], the Relative lysis in experiment [1] (80 ul Polysorbate-80) is given as 3.2%. The “H. pylori growth (cfu recovered)” value in the experiment on H. pylori strain #26695 (setting [2]) is “NG*”; in the experiment on H. pylori strain #26695 (final dilution 1:50 of stock) it was “NG”; with H. pylori strain #26695 (final dilution 1:100 of stock) it was “NG”; in the experiment with H. pylori strain #26695 (final dilution 1:500 of stock), 10^3 cfu; in the experiment with H. pylori strain #26695 (final dilution 1:1000 of stock) it was 10^4 cfu; in the experiment on H. pylori strain #26695 (final dilution 1:5000 of stock), “TNTC**”. For the same molecule, the “H. pylori growth (cfu recovered)” value with H. pylori strain #26695 (setting [3]) and in the experiment on H. pylori strain #26695 (setting [4]) was “TNTC” each time.

Turning to `CC(C)=CCCC(C)=CC=O` [Citral], the “H. pylori growth (cfu recovered)” value with H. pylori strain #26695 (setting [2]), in the experiment on H. pylori strain #26695 (final dilution 1:50 of stock), in the experiment with H. pylori strain #26695 (final dilution 1:100 of stock), with H. pylori strain #26695 (final dilution 1:500 of stock), in the experiment with H. pylori strain #26695 (final dilution 1:1000 of stock) and with H. pylori strain #26695 (final dilution 1:5000 of stock) was “NG” throughout. For the same molecule, the results for the “H. pylori growth (cfu recovered)” value in the experiment on H. pylori strain #26695 (setting [3]) and in the experiment on H. pylori strain #26695 (setting [4]) were “NG” and “TNTC”, respectively. Moreover, the “concentration in growth media that reduced the concentration of E. coli” value with E. coli is “more than 0.01%”. Besides, the “concentration with bactericidal effect” value with E. coli (growth media) is listed as 0.08%.

In the case of “Trimethropim-sulfamethoxazole [reference compound]”, in the experiment on Traveler's Diarrhea, the Efficacy is listed as 70-80% protective.

For `C=C(C)C1CC=C(C)C(=O)C1` (stereo not shown) [Carvone], the Relative lysis in experiment [1] (404 uM) was found to be 3.2%; in experiment [1] (4,040 uM), 22%; in experiment [1] (40,400 uM), 54%. Besides, the “H. pylori growth (cfu recovered)” value with H. pylori strain #26695 (setting [2]) was “NG”; in the experiment on H. pylori strain #26695 (final dilution 1:50 of stock), “NG”; with H. pylori strain #26695 (final dilution 1:100 of stock) it was “NG”; with H. pylori strain #26695 (final dilution 1:500 of stock), “NG”; in the experiment with H. pylori strain #26695 (final dilution 1:1000 of stock), “NG”; in the experiment with H. pylori strain #26695 (final dilution 1:5000 of stock), 10^4 cfu. Further, the “H. pylori growth (cfu recovered)” value in the experiment on H. pylori strain #26695 (setting [3]) and in the experiment on H. pylori strain #26695 (setting [4]) was “TNTC” each time. The “% growth” value with E. coli strain AW574 amounted to 63.00%.

Regarding Lactobacillus, the Efficacy entry in the experiment with Traveler's Diarrhea is “Not proven”.

With `CC(C)=CCC/C(C)=C/CO` [Geraniol], the Relative lysis in experiment [1] (3.63 uM) amounted to 2.4%; in experiment [1] (36.3 uM), 4%; in experiment [1] (363 uM), 34%; in experiment [1] (3,630 uM), 98%; in experiment [1] (36,300 uM), 96%. The “H. pylori growth (cfu recovered)” value in the experiment with H. pylori strain #26695 (setting [2]), in the experiment with H. pylori strain #26695 (final dilution 1:50 of stock), in the experiment with H. pylori strain #26695 (final dilution 1:100 of stock), with H. pylori strain #26695 (final dilution 1:500 of stock), in the experiment on H. pylori strain #26695 (final dilution 1:1000 of stock) and with H. pylori strain #26695 (final dilution 1:5000 of stock) was “NG” in each case. The “H. pylori growth (cfu recovered)” value is 10^2 cfu in the experiment on H. pylori strain #26695 (setting [3]) and “TNTC” in the experiment with H. pylori strain #26695 (setting [4]). Moreover, in the experiment on E. coli strain AW574, the “% growth” value is recorded as 54.00%. The “concentration that inhibited the growth of H pylori” value with H pylori is 2 mg/lt.

In the case of `CC(=O)/C=C/C1=C(C)CCCC1(C)C` [b-Ionone], the Relative lysis amounted to 1.3% in experiment [1] (0.0308 uM); 4.78% in experiment [1] (0.308 uM); 23% in experiment [1] (3.08 uM); 44% in experiment [1] (30.8 uM); 52% in experiment [1] (308 uM). The “H. pylori growth (cfu recovered)” value in the experiment with H. pylori strain #26695 (setting [2]), in the experiment on H. pylori strain #26695 (final dilution 1:50 of stock), in the experiment with H. pylori strain #26695 (final dilution 1:100 of stock), in the experiment with H. pylori strain #26695 (final dilution 1:500 of stock), in the experiment on H. pylori strain #26695 (final dilution 1:1000 of stock) and in the experiment on H. pylori strain #26695 (final dilution 1:5000 of stock) was “NG” each time. The entries for the “H. pylori growth (cfu recovered)” value in the experiment on H. pylori strain #26695 (setting [3]) and in the experiment on H. pylori strain #26695 (setting [4]) were “NG” and “TNTC”, respectively. Also, the “% growth” value in the experiment on E. coli strain AW574 was 84.00%.
